Measured values published in US8871767B2, “2-arylimidazo[1,2-B]pyridazine, 2-phenylimidazo[1,2-A]pyridine, and 2-phenylimidazo[1,2-A]pyrazine derivatives” (Hengrui (USA) Ltd., priority 2010, dated 2014).
Like-named read-outs stand apart in the source and are kept apart here.

How the values were obtained:
[1] = tested on: Hedgehog pathway activation on 10T1/2/Smo#3 cells (C3H10T1/2 cells transfected with human Smoothened receptor); assay: Hedgehog pathway activation on 10T1/2/Smo#3 cells measured by ALP activity; assay type: cell-based; conditions: Mus musculus, C3H 10T1/2, 10T1/2/Smo#3 cells
How it was run: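 C3H10T1/2 cells stably expressing human Smoothened were activated with hShh-conditioned medium (10-20%) or 500 nM SAG, with test compounds present. Pathway block read as inhibited ALP activity (4-methylumbelliferyl phosphate fluorescence); viability checked by CellTiter-Blue. IC50 values reported.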

[2] = tested on: Hedgehog pathway activation (GLi-luciferase reporter) in Shh Light II reporter cells; assay: Hedgehog pathway activation on Shh Light II reporter cells measured by luciferase activity; assay type: cell-based; conditions: Mus musculus, Shh Light II
How it was run: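 Shh Light II reporter cells carrying a hedgehog-responsive GLi-luciferase reporter were stimulated either with 500 nM SAG, a direct Smoothened agonist, or with conditioned media containing human Sonic Hedgehog (hShh). Test compounds were evaluated for blocking this pathway activation, quantified by luciferase activity. Cell viability was monitored in parallel with the Celltiter-Blue® assay.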

[3] = measured by ALP activity, read-out: ALP (IC50, inhibition of Hedgehog pathway activation)
[4] = hShh activation, read-out: Shh (IC50, inhibition of Hedgehog pathway activation)
[5] = hShh activation, ALP activity, read-out: 10T1/2/Smo#3 ALP activity (hShh Activation)
[6] = SAG activation (500 nM SAG), read-out: Shh Light II luciferase activity (SAG activation)
[7] = hShh activation, read-out: Shh Light II luciferase activity (hShh activation)

IC50 [1, 3]	IC50 [2, 4]	IC50 [1, 5]	IC50 [2, 6]	IC50 [2, 7]	Compound
1.22 µM	0.459 µM				CCc1ccc(-c2cn3nc(-c4cccnc4C(F)(F)F)ccc3n2)cc1NC(=O)CC(C)(C)C [Example 691, N-(2-ethyl-5-(6-(2-(trifluoromethyl)pyridin-3-yl)imidazo[1,2-b]pyridazin-2-yl)phenyl)-3,3-dimethylbutanamide]
0.59 µM	0.314 µM				Cc1cccnc1-c1ccc2nc(-c3ccc(C(F)(F)F)c(NC(=O)C(C)(C)C)c3)cn2n1 [Example 152, N-(5-(6-(3-methylpyridin-2-yl)imidazo[1,2-b]pyridazin-2-yl)-2-(trifluoromethyl)phenyl)pivalamide]
0.075 µM	0.022 µM				CCC(C)(C)C(=O)Nc1cc(-c2cn3nc(-c4cccnc4C(F)(F)F)ccc3n2)c(F)cc1Cl [Example 659, N-(2-chloro-4-fluoro-5-(6-(2-(trifluoromethyl)pyridin-3-yl)imidazo[1,2-b]pyridazin-2-yl)phenyl)-2,2-dimethylbutanamide]
0.789 µM	1.77 µM				Cc1ccc(-c2cn3nc(SCc4ccccc4)ccc3n2)cc1NC(=O)C(C)(C)C [Example 129, N-(5-(6-(benzylthio)imidazo[1,2-b]pyridazin-2-yl)-2-methylphenyl)pivalamide]
	0.323 µM	0.3 to 3 µM	0.3 to 3 µM	< 0.3 µM	C#Cc1ccc(-c2cn3nc(-c4ccccc4F)ccc3n2)cc1NC(=O)C(C)(C)C [Example 321, N-(2-ethynyl-5-(6-(2-fluorophenyl)imidazo[1,2-b]pyridazin-2-yl)phenyl)pivalamide]
0.002 µM	0.01 µM	< 0.3 µM	< 0.3 µM	< 0.3 µM	Cc1ccc(-c2cn3nc(-c4ccc(/C(N)=N/O)cc4C(F)(F)F)ccc3n2)cc1NC(=O)C(C)(C)C [compound 511, N-(5-(6-(4-(N′-hydroxycarbamimidoyl)-2-(trifluoromethyl)phenyl)imidazo[1,2-b]pyridazin-2-yl)-2-methylphenyl)pivalamide]
4.21 µM	9.12 µM				COc1ccc2nc(-c3ccc(C)c(NCc4ccc(F)cc4)c3)cn2n1 [Example 102, N-(4-fluorobenzyl)-5-(6-methoxyimidazo[1,2-b]pyridazin-2-yl)-2-methylaniline]
0.526 µM	0.898 µM	0.3 to 3 µM	< 0.3 µM	0.3 to 3 µM	CCCCS(=O)(=O)c1ccc2nc(-c3ccc(C)c(NC(=O)C(C)(C)C)c3)cn2n1 [Example 130, N-(5-(6-(butylsulfonyl)imidazo[1,2-b]pyridazin-2-yl)-2-methylphenyl)pivalamide]
4.43 µM	4.4 µM	3 to 30 µM	3 to 30 µM	3 to 30 µM	CC(C)(C)C(=O)Nc1cc(-c2cn3nc(C#N)ccc3n2)ccc1C(F)(F)F [Example 173, N-(5-(6-cyanoimidazo[1,2-b]pyridazin-2-yl)-2-(trifluoromethyl)phenyl)pivalamide]
0.116 µM	0.197 µM	< 0.3 µM	0.3 to 3 µM	< 0.3 µM	CC(=O)c1ccc(F)c(-c2ccc3nc(-c4ccc(C)c(NC(=O)C(C)(C)C)c4)cn3n2)c1 [compound 529]
0.604 µM	0.895 µM	0.3 to 3 µM	0.3 to 3 µM	0.3 to 3 µM	CCCCSc1ccc2nc(-c3ccc(C)c(NC(=O)C(C)(C)C)c3)cn2n1 [Example 124, N-(5-(6-(butylthio)imidazo[1,2-b]pyridazin-2-yl)-2-methylphenyl)pivalamide]
0.469 µM	0.27 µM	0.3 to 3 µM	0.3 to 3 µM	< 0.3 µM	Cc1ncc(-c2cn3nc(-c4ccccc4F)ccc3n2)cc1NC(=O)C(C)(C)C [Example 390, N-(5-(6-(2-fluorophenyl)imidazo[1,2-b]pyridazin-2-yl)-2-methylpyridin-3-yl)pivalamide]
0.284 µM	0.281 µM				Cc1c(-c2ccccc2F)nn2cc(-c3ccc(C(F)(F)F)c(NC(=O)C(C)(C)C)c3)nc2c1C [Example 200, N-(5-(6-(2-fluorophenyl)-7,8-dimethylimidazo[1,2-b]pyridazin-2-yl)-2-(trifluoromethyl)phenyl)pivalamide]
2.17 µM	3.45 µM				CN(C)c1ccc2nc(-c3ccc(C(F)(F)F)c(NC(=O)C(C)(C)C)c3)cn2n1 [Example 138, N-(5-(6-(dimethylamino)imidazo[1,2-b]pyridazin-2-yl)-2-(trifluoromethyl)phenyl)pivalamide]
0.371 µM	0.285 µM				Cc1ccc(-c2cn3nc(N4CCC(C(N)=NO)CC4)ccc3n2)cc1NC(=O)C(C)(C)C [compound 566]
4.1 µM	7.46 µM				CCOC(=O)CCCCCOc1ccc(C(F)(F)F)c(-c2ccc3nc(-c4ccc(C)c(NC(=O)C(C)(C)C)c4)cn3n2)c1 [Example 424, ethyl 6-(3-(2-(4-methyl-3-pivalamidophenyl)imidazo[1,2-b]pyridazin-6-yl)-4-(trifluoromethyl)phenoxy)hexanoate]
0.375 µM	0.223 µM				CC(C)(C)C(=O)Nc1cc(-c2cn3nc(-c4ccc(C(F)(F)F)cc4)ccc3n2)ccc1C(F)(F)F [Example 210, N-(2-(trifluoromethyl)-5-(6-(4-(trifluoromethyl)phenyl)imidazo[1,2-b]pyridazin-2-yl)phenyl)pivalamide]
0.604 µM	1.24 µM				Cc1ccc(-c2cn3nc(C4=CCC(C)(C)CC4)ccc3n2)cc1NC(=O)C(C)(C)C [Example 444, N-(5-(6-(4,4-dimethylcyclohex-1-enyl)imidazo[1,2-b]pyridazin-2-yl)-2-methylphenyl)pivalamide]
0.062 µM	0.082 µM				CC(C)(C)C(=O)Nc1cc(-c2cn3nc(-c4cc(F)ccc4F)ccc3n2)ccc1C(F)(F)F [Example 224, N-(5-(6-(2,5-difluorophenyl)imidazo[1,2-b]pyridazin-2-yl)-2-(trifluoromethyl)phenyl)pivalamide]
0.484 µM	0.066 µM				Cc1ccc(-c2cn3nc(NS(=O)(=O)c4cccc(C=CC(=O)NO)c4)ccc3n2)cc1NC(=O)C(C)(C)C [compound 606]
0.021 µM	0.038 µM				CC(=O)NC1CCN(c2ccc3nc(-c4ccc(C(F)(F)F)c(NC(=O)C(C)(C)C)c4)cn3n2)C1 (stereo not drawn) [Example 351, N-(5-(6-(3-acetamidopyrrolidin-1-yl)imidazo[1,2-b]pyridazin-2-yl)-2-(trifluoromethyl)phenyl)pivalamide]
1.81 µM	2.23 µM	0.3 to 3 µM	3 to 30 µM	0.3 to 3 µM	CCOc1ccc2nc(-c3ccc(CC)c(NC(=O)C(C)(C)C)c3)cn2n1 [Example 283, N-(5-(6-ethoxyimidazo[1,2-b]pyridazin-2-yl)-2-ethylphenyl)pivalamide]
0.07 µM	0.326 µM				CC(C)(C)C(=O)Nc1cc(-c2cn3nc(-c4ccccc4OC(F)(F)F)ccc3n2)ccc1C(F)(F)F [Example 240, N-(5-(6-(2-(trifluoromethoxy)phenyl)imidazo[1,2-b]pyridazin-2-yl)-2-(trifluoromethyl)phenyl)pivalamide]
0.342 µM	0.139 µM				O=C(Nc1cc(-c2cn3nc(-c4cccnc4C(F)(F)F)ccc3n2)ccc1F)C1CCCC1 [Example 678, N-(2-fluoro-5-(6-(2-(trifluoromethyl)pyridin-3-yl)imidazo[1,2-b]pyridazin-2-yl)phenyl)cyclopentanecarboxamide]
0.23 µM	0.625 µM				CC(C)(C)C(=O)Nc1cc(-c2cn3nc(-c4ccc(Cl)cc4)ccc3n2)ccc1C(F)(F)F [Example 238, N-(5-(6-(4-chlorophenyl)imidazo[1,2-b]pyridazin-2-yl)-2-(trifluoromethyl)phenyl)pivalamide]
0.707 µM	0.17 µM				CCOC(=O)CCCOc1cccc(-c2ccc3nc(-c4ccc(C)c(NC(=O)C(C)(C)C)c4)cn3n2)c1C(F)(F)F [Example 426, ethyl 4-(3-(2-(4-methyl-3-pivalamidophenyl)imidazo[1,2-b]pyridazin-6-yl)-2-(trifluoromethyl)phenoxy)butanoate]
0.105 µM	0.129 µM				Cc1ccc(-c2cn3nc(-c4ccccc4Cl)ccc3n2)cc1NC(=O)C(C)(C)C [Example 258, N-(5-(6-(2-chlorophenyl)imidazo[1,2-b]pyridazin-2-yl)-2-methylphenyl)pivalamide]
5.76 µM	> 10 µM	3 to 30 µM	3 to 30 µM	3 to 30 µM	CCOc1ccc2nc(-c3ccc(C(F)(F)F)c(S(=O)(=O)NC4CC4)c3)cn2n1 [Example 212, N-cyclopropyl-5-(6-ethoxyimidazo[1,2-b]pyridazin-2-yl)-2-(trifluoromethyl)benzenesulfonamide]
0.097 µM	0.072 µM				CC(C)(C)C(=O)Nc1cc(-c2cn3nc(-c4ccccc4C(F)(F)F)ccc3n2)ccc1C(F)(F)F [Example 209, N-(2-(trifluoromethyl)-5-(6-(2-(trifluoromethyl)phenyl)imidazo[1,2-b]pyridazin-2-yl)phenyl)pivalamide]
